Activity calls are given as the source filed them. The rule behind the calls is not given here.
experiment: non-covalent RecA intein splicing inhibitors, dose response, biochemical, cell-free, fluorescence, secondary screen (AID 449750)

Row | SMILES | AC50
1 | CC1=NN(c2ccccc2)C(=O)/C1=C/c1c(O)[nH]c(=O)[nH]c1=O | > 38 µM (inactive)
2 | C=CCN1C(=O)NC(c2ccc(OC)cc2)(C(F)(F)F)S/C1=C(\C#N)c1nnc(N2CCOCC2)n1-c1ccccc1 (stereo not drawn) | 32.4 µM
3 | CCCc1[nH]nc2c1C(c1ccc(OC(=O)N3CCOCC3)cc1)C(C#N)=C(N)O2 (stereo not drawn) | > 38 µM (inactive)
4 | O=Nc1c(O)c2ccccc2c2ccccc12 | 2.68 µM
5 | CCOc1cc(/C=C2\C(=N)N3N=C(S(=O)(=O)CC)SC3=NC2=O)ccc1OC(=O)c1ccco1 | > 38 µM (inactive)
6 | Cc1[nH]nc2c1C(c1ccco1)C(C#N)=C(N)O2 (stereo not drawn) | > 38 µM (inactive)
7 | CN(C)CCSc1nnc2[nH]c3ccccc3c2n1 | > 38 µM (inactive)
8 | Cc1[nH][nH]c(=O)c1C(c1ccc(-c2ccc(F)cc2)o1)c1c(C)[nH][nH]c1=O | 3.95 µM
9 | CCOC(=O)c1nn(-c2ccc(C)cc2)c(=O)c2c(N)scc12 | > 38 µM (inactive)
10 | CC(=O)Nc1ccc(NC(=O)c2nc(S(=O)(=O)Cc3ccccc3)ncc2Cl)cc1 | > 38 µM (inactive)
11 | CN1CCN(C2=C(Cl)C(=O)N(c3ccc(Cl)cc3)C2=O)CC1 | 3.49 µM
12 | CCn1c2ccccc2c2cc(C3C(C#N)=C(N)Oc4n[nH]c(COC)c43)ccc21 (stereo not drawn) | 8.48 µM
13 | CCC(=O)Oc1ccc(C(=O)Nc2cccc(C(=O)c3ccccc3)c2)cc1 | 32.8 µM
14 | Cc1ccc(/C=C2\SC(N3CCN(C(c4ccccc4)c4ccccc4)CC3)=NC2=O)o1 | 4.48 µM
15 | CC(Nc1c[nH]c(=O)[nH]c1=O)c1ccccc1 (stereo not drawn) | > 38 µM (inactive)
16 | Cc1ccc(NC2=C(N3CCOCC3)C(=O)c3ccccc3C2=O)cc1 | 11.3 µM
17 | CCCCCCCCCCCCCCCC[N+](C)(C)CC | 10.9 µM
18 | COC(=O)c1c(C)oc2ccc(N(C(=O)c3ccncc3)S(=O)(=O)c3ccc4ccccc4c3)cc12 | > 38 µM (inactive)
19 | Nc1c(-c2ccccc2)c(CSc2nc3ccccc3[nH]2)nn1-c1cccc(Cl)c1 | > 38 µM (inactive)
20 | CCc1ccccc1N1C(=O)C(Cl)=C(N2CCOCC2)C1=O | > 38 µM (inactive)
21 | CC1=NNC(=O)/C1=C\c1cn(-c2ccccc2)nc1-c1ccccc1 | 8.49 µM
22 | Cc1ccc(S(=O)(=O)N(C(=O)c2ccncc2)c2ccc(OC(=O)c3ccncc3)c3ccccc23)cc1 | 4.13 µM
23 | CCOc1cc(C(c2c(C)[nH][nH]c2=O)c2c(C)[nH][nH]c2=O)cc(Br)c1OC | 15.8 µM
24 | O=[N+]([O-])c1c(NCc2ccco2)ccc2nonc12 | > 38 µM (inactive)
25 | O=C(c1ccc(N2CCN(CCO)CC2)nc1)N1CCOCC1 | > 38 µM (inactive)
26 | CCOc1cc(C(c2c(C)[nH][nH]c2=O)c2c(C)[nH][nH]c2=O)ccc1OS(=O)(=O)c1ccc(C)cc1 | 4.78 µM

Row | SMILES | AC50
27 | O=C(CCl)Nc1sccc1C(=O)c1ccccc1 | 14 µM
28 | COc1ccc(C(=O)/C(=C/c2cccs2)c2nc3ccccc3o2)cc1 | > 38 µM (inactive)
29 | Cc1ccc(C(=O)C(OC(=O)CN2C(=O)c3ccccc3C2=O)c2ccccc2)cc1C (stereo not drawn) | > 38 µM (inactive)
30 | CC(C)(C)c1cnnn1-c1ccc(C(=O)CCl)cc1 | > 38 µM (inactive)
31 | O=C(CCl)Nc1cccc(-c2cnc3ccccc3n2)c1 | 16.5 µM
32 | CS(=O)(=O)C1=NN2C(=N)/C(=C\c3ccc(OC(=O)c4ccco4)cc3)C(=O)N=C2S1 | > 38 µM (inactive)
33 | COc1ccc(OC)c(C2C(C#N)=C(N)Oc3c2c(C)nn3-c2cccc(Cl)c2)c1 (stereo not drawn) | 30 µM
34 | O=c1[nH]cc(NCCc2ccccc2)c(=O)[nH]1 | > 38 µM (inactive)
35 | COC(=O)Cc1[nH]nc2c1C(c1ccc(O)c(OC)c1)C(C#N)=C(N)O2 (stereo not drawn) | 28.4 µM
36 | Cc1c(C#N)c(NC(=O)CCl)n(Cc2ccccc2)c1C | 7.6 µM
37 | CCc1ccc(S(=O)(=O)/N=C2\C=C(NS(=O)(=O)c3ccccc3)C(=O)c3ccccc32)cc1 | 4.45 µM
38 | COc1ccc(-c2nnc(SC(=O)N3c4ccccc4Sc4ccccc43)o2)cc1 | 4.86 µM
39 | C/C(CC(=O)Nc1ccccn1)=N\NC(=O)c1cccc(C)c1 | > 38 µM (inactive)
40 | CCc1ccc(NC(=O)C(=O)N/N=C(\C)CC(=O)Nc2ccccn2)cc1 | > 38 µM (inactive)
41 | Cc1nc2ccccc2nc1N/N=C/c1ccc(O)cc1O | > 38 µM (inactive)
42 | Nn1cnnc1N/N=C/c1ccc(Cl)c([N+](=O)[O-])c1 | > 38 µM (inactive)
43 | CCSc1c([N+](=O)[O-])c(=O)n(-c2ccccc2)c2ccccc12 | > 38 µM (inactive)
44 | CC(=O)NC1C(=O)N(CCN2CCOCC2)c2ccc(Br)cc21 (stereo not drawn) | 18.1 µM
45 | O=C(CCl)NCc1c(Cl)cccc1-n1cccc1 | 7.58 µM
46 | Cc1nn(Cc2ccccc2)c2c1C(c1cccnc1)C(C#N)=C(N)O2 (stereo not drawn) | > 38 µM (inactive)
47 | CSCCC1C(C#N)=C(N)Oc2n[nH]c(-c3cccs3)c21 (stereo not drawn) | 11.4 µM
48 | N=C(N)SCc1cn(-c2ccccc2)nc1-c1ccc(Br)cc1 | 16.2 µM
49 | COc1ccc(-c2c(=O)n(OC)c3ccccc3[n+]2[O-])cc1OC | > 38 µM (inactive)
50 | O=[N+]([O-])c1cccc2c([As](=O)(O)O)cccc12 | > 38 µM (inactive)
51 | Oc1[nH]c(=S)sc1C=C1N=c2ccccc2=N1 | > 38 µM (inactive)
52 | CCc1[nH]nc2c1C(c1ccsc1)C(C#N)=C(N)O2 (stereo not drawn) | > 38 µM (inactive)

Row | SMILES | AC50
53 | Cc1[nH][nH]c(=O)c1C(c1cc(Br)ccc1O)c1c(C)[nH][nH]c1=O | 8.35 µM
54 | CC(=O)n1cc(N(C(=O)CCl)c2ccc(C)cc2)c2ccccc21 | 1.38 µM
55 | CCCCC[C@H](O)/C=C/[C@@H]1[C@@H](C/C=C\CCCC(=O)OC)[C@@H](O)C[C@H]1O | 36.5 µM
56 | CC(=O)N(C1=C(N2CCOCC2)C(=O)c2ccccc2C1=O)c1ccc(C(=O)O)cc1 | 9.14 µM
57 | O=C(N/N=C/c1ccc([N+](=O)[O-])o1)c1ccc(O)cc1 | > 38 µM (inactive)
58 | COc1ccc(N2CCN(C(=O)c3ccc(Oc4ccc(C(F)(F)F)cn4)cc3)CC2)cc1 | > 38 µM (inactive)
59 | O=C1/C(=N\S(=O)(=O)c2cccs2)C([n+]2ccccc2)=C([O-])c2ccccc21 | 7.78 µM
60 | CC1=NN(c2ccc(F)cc2)C(=O)C1C(c1cccc(O)c1)c1c(C)[nH]n(-c2ccc(F)cc2)c1=O (stereo not drawn) | 2.89 µM
61 | CC(C)CC(NC(=O)CCl)c1ccccc1 (stereo not drawn) | 5.47 µM
62 | CC1=NN(c2ccccc2)C(=O)/C1=C\c1cn(C)c2ccccc12 | > 38 µM (inactive)
63 | O=C(Sc1nnc(-c2ccccc2)o1)N1c2ccccc2Sc2ccccc21 | 11 µM
64 | N#CC(C#N)C(c1ccsc1)c1c(-c2ccccc2)[nH][nH]c1=O (stereo not drawn) | 37.8 µM
65 | Oc1c(C=NCc2ccc(F)cc2)[nH]c2ccc(Br)c(Cl)c12 | 30.8 µM
66 | Cc1onc(-c2ccccc2)c1-c1nc2cc(Cl)ccc2c(=O)o1 | > 38 µM (inactive)
67 | O=C(OCn1ncc(Cl)c(Cl)c1=O)c1cccc(C(F)(F)F)c1 | 12.9 µM
68 | CC1CCCN(C2=C(Cl)C(=O)N(c3cccc(Cl)c3)C2=O)C1 (stereo not drawn) | > 38 µM (inactive)
69 | COC(=O)CC1=NN(c2nc(C)cc(C)n2)C(=O)C1 | > 38 µM (inactive)
70 | O=S(=O)(c1ccccc1)c1ncc(C(F)(F)F)cc1Cl | > 38 µM (inactive)
71 | COc1cc(/C=C2\C(=O)N(c3ccc(S(N)(=O)=O)cc3)N=C2C)ccc1OC(=O)c1ccco1 | 21 µM
72 | ClC(Cl)(Cl)c1nc2ccccc2n2nncc12 | > 38 µM (inactive)
73 | CC(=O)c1cccc(-c2ccc3c(=O)[nH]c(Nc4ccccc4)cc3c2)c1 | 6.06 µM
74 | CC1=NN(c2nc(-c3ccccc3)cs2)C(=O)C1 | 18.8 µM
75 | CN(C1=C(NC(=O)c2ccc(Cl)cc2)C(=O)c2ccccc2C1=O)c1ccccc1 | 15 µM
76 | CCOC(=O)C1=C(c2ccccc2)NC(N)=NC1c1ccc(OCc2ccc(C(=O)OC)cc2)cc1 (stereo not drawn) | 9.55 µM
77 | O=C(Nc1n[nH]c(C(F)(F)F)n1)c1cccs1 | > 38 µM (inactive)
78 | CC(C)c1ccc(/C=N/NC(=O)c2nnn(-c3nonc3N)c2CSC2=NCCS2)cc1 | 27.6 µM

Row | SMILES | AC50
79 | O=C(Cc1cc(=O)[nH][nH]1)N/N=C/c1cccc2ccccc12 | 17.4 µM
80 | c1ccc(-c2nc(N3CCCCCC3)nc(-n3ccnc3)n2)cc1 | > 38 µM (inactive)
81 | O=C1NC(c2ccc(-c3ccccc3[N+](=O)[O-])o2)C(C(=O)c2ccc(F)cc2)C(O)(C(F)(F)F)N1 (stereo not drawn) | 34.4 µM
82 | Cc1ccc(S(=O)(=O)/N=C2\C=C(Nc3cccc(C(=O)O)c3)C(=O)c3ccccc32)cc1 | 0.412 µM
83 | Cc1ccc(C2C(C#N)=C(N)Oc3n[nH]c(-c4ccccc4)c32)o1 (stereo not drawn) | > 38 µM (inactive)
84 | CS(=O)(=O)c1nc(-c2ccco2)cc(C(F)(F)F)n1 | > 38 µM (inactive)
85 | [O-]C1=N/[N+](=C/c2ccc(Cl)cc2)CC1 | > 38 µM (inactive)
86 | O=C(Cc1ccccc1F)Nc1nc2ccccc2[nH]1 | > 38 µM (inactive)
87 | CCN1C(=O)c2c(C)nc3ccccc3c2C1=O | > 38 µM (inactive)
88 | CC(NC(=O)/C(C#N)=C/c1ccc([N+](=O)[O-])o1)c1ccccc1 (stereo not drawn) | > 38 µM (inactive)
89 | CC1=NN(CCC#N)C(=O)/C1=C/c1ccc(N(C)C)cc1 | 22.4 µM
90 | N#CC1=C(N)C(C#N)(C#N)[C@H](c2c(F)cccc2F)[C@H]2CC3(CC=C12)OCCO3 | > 38 µM (inactive)
91 | C=CCc1cccc(C=Nc2c[nH]c(=O)[nH]c2=O)c1O | > 38 µM (inactive)
92 | C=C(C)CNC(=S)N=Nc1c(O)[nH]c2ccc([N+](=O)[O-])cc12 | > 38 µM (inactive)
93 | Fc1ccc(Nc2nc(NCc3ccco3)c3ccccc3n2)cc1 | 7.39 µM
94 | COc1cc(C2C(C#N)=C(N)Oc3n[nH]c(-c4cccnc4)c32)cc(Br)c1O (stereo not drawn) | 4.01 µM
95 | CCCCN(C(=O)c1cccc2c(=O)c(C)c(-c3ccccc3)oc12)c1ccccc1 | 6.5 µM
96 | Cc1cccc(N(Cc2ccccc2)C(=O)CCl)c1 | 2.06 µM
97 | COc1cccc(N(C(=O)CCl)C(C(=O)NCCc2ccccc2)c2cccs2)c1 (stereo not drawn) | 1.29 µM
98 | Cc1ccc(Sc2ccc(NC(=O)CCl)cc2)c(C)c1 | 1.18 µM
99 | O=C(Oc1ccc(Br)cc1C(=S)N1CCCCC1)c1cc([N+](=O)[O-])cc([N+](=O)[O-])c1 | > 38 µM (inactive)
100 | CC(=O)NC1C(=O)N(CCN2CCOCC2)c2ccc(C)cc21 (stereo not drawn) | 21.6 µM
101 | CCN(CC)C(=O)CSc1nnc2nnc3cc(Cl)ccc3n12 | > 38 µM (inactive)
102 | Cc1cccc(C)c1NC(=O)c1nc(S(=O)(=O)Cc2ccccc2)ncc1Cl | > 38 µM (inactive)
103 | CCOc1ccc(C(c2c(C)[nH][nH]c2=O)c2c(C)[nH][nH]c2=O)cc1OC | 6.7 µM

— PubChem BioAssay AID449750 (Broad Institute, 2010)
